Assay results: EP0935964A1, “Pharmaceutical compositions containing NSAIDs and piperine” (PANACEA BIOTEC LIMITED, priority 1998, dated 1999)
Like-named read-outs stand apart in the source and are kept apart here.

Columns and labels:
[1] = test system: acetic acid induced writhing; conditions: mice, n = 8, Nimesulide 10mg/kg
Experimental: Pharmacokinetic studies were also performed in rats. […] The study design for acetic acid induced writhing in mice was as follows : Table II

[2] = in vivo; cited from earlier work
[3] = Plasma levels of Nimesulide in rats after oral administration of the compositions (Experiment I, HPLC); format: in vivo, albino rats
Experimental: The rats were housed 5 per cage with food and water provided ad libidum. On the day of experimentation the rats were randomised into ten batches of 5 rats each. Four groups were formed. […] Group II consisted of four batches of five rats each. […] Rats of batch I from Group II were sacrificed 60 minutes post treatment after Chloroform anaesthesia. […] Blood was collected from the rats from the ventricle into heparinised tubes. Group III consisted of one batch of 5 rats, which received only Piperine at a dose level of 1.0mg/kg body wt. […] Blood was collected from the rats from the ventricle into heparinised tubes. Group IV consisted of 4 batches of 5 rats each. […] Rats of batch 1 from Group IV were sacrificed 60 minutes post treatment after Chloroform anaesthesia. […] Blood was collected from the rats from the ventricle into heparinised tubes. The blood samples were centrifuged at 3700 rpm and the plasma separated. […] Extracted benzene was evaporated in a water bath at 95°C and reconstituted with 100 µl of mobile phase and 10 µl was injected into the HPLC. Waters HPLC fitted with C18 µ Bondapack was used along with Waters UV-Vis detector (254nm). […] Unpaired student T test was applied on the data. Level of significance was fixed at p < 0.05.

[4] = rats, oral, Nimesulide 10 mg/kg (with Piperine 10mg/kg in the combination), n = 5
Experimental: The single test point pharmacokinetic studies were performed in two groups of rats. […] Rats were sacrificed at 90 minutes. post treatment and blood samples were analysed by HPLC.

plasma proteins = conditions: cited from earlier work
[5] = formulations containing Piperine compared with those which did not contain Piperine; cited from earlier work
[6] = cited from earlier work
[7] = cited from earlier work; remark: listed apart in the source

Structure (SMILES): CS(=O)(=O)Nc1ccc([N+](=O)[O-])cc1Oc1ccccc1 [Nimesulide, N-(4-nitro, 2-phenoxyphenyl) methanesulfonamide]
- % PROTECTION [1]: 54%
- dose excreted unchanged in the urine [2]: 1-3%
- Concentration of the drug in plasma ([3]; Nimesulide alone 1.8 mg/kg, 240 min post treatment): 4.6 ± 1.4 kg/mL
- Plasma levels of Nimesulide ([3]; oral suspension, Nimesulide 1.8 mg/kg (with Piperine 1.0 mg/kg in the combination), 60 min. post treatment): 5800 ± 1700 µg/mL
- Plasma levels of Nimesulide ([3]; oral suspension, Nimesulide 1.8 mg/kg (with Piperine 1.0 mg/kg in the combination), 120 min. post treatment): 7900 ± 2300 µg/mL
- Plasma levels of Nimesulide ([3]; oral suspension, Nimesulide 1.8 mg/kg (with Piperine 1.0 mg/kg in the combination), 240 min. post treatment): 4600 ± 1400 µg/mL
- Plasma levels of Nimesulide ([3]; oral suspension, Nimesulide 1.8 mg/kg (with Piperine 1.0 mg/kg in the combination), 360 min. post treatment): 2200 ± 1100 µg/mL
- Plasma concentration (90 min post treatment) [4]: 8818 µg/mL
- bound to plasma proteins (plasma proteins): 99%

Structure (SMILES): NC(=O)c1cnccn1 [Pyrazinamide]
- mean increase in AUC [5]: 36%

Structure (SMILES): O=C(/C=C/C=C/c1ccc2c(c1)OCO2)N1CCCCC1 [Piperine, (E, E) 1-[5-(1,3-benzodioxyl-5-yl)-1-oxo-2,4-pentadenyl] piperidine]
- solubility ([6]; in benzene, chloroform, ether, ethyl acetate, dichloromethane, alcohol, acetic acid): soluble
- solubility ([6]; in water, pet. ether): insoluble
- Plasma levels of Nimesulide ([3]; only Piperine 1.0 mg/kg, no Nimesulide, column 120 min.): Nil
- pKa [7]: 12.22

Structure (SMILES): NNC(=O)c1ccncc1 [Isoniazid]
- mean increase in AUC [5]: 131%

Structure (SMILES): CO[C@H]1/C=C/O[C@@]2(C)Oc3c(C)c(O)c4c(O)c(c(/C=N/N5CCN(C)CC5)c(O)c4c3C2=O)NC(=O)/C(C)=C\C=C\[C@H](C)[C@H](O)[C@@H](C)[C@@H](O)[C@@H](C)[C@H](OC(C)=O)[C@@H]1C [Rifampicin]
- mean increase in AUC [5]: 37.6%
